According to publication PMC6269737, “Effect of Honokiol on Cytochrome P450 and UDP-Glucuronosyltransferase Enzyme Activities in Human Liver Microsomes” (Molecules, 2013):

Target: T1, UGT1A4 (Homo sapiens, UniProt P22310)
T1 sequence (P22310 29-534): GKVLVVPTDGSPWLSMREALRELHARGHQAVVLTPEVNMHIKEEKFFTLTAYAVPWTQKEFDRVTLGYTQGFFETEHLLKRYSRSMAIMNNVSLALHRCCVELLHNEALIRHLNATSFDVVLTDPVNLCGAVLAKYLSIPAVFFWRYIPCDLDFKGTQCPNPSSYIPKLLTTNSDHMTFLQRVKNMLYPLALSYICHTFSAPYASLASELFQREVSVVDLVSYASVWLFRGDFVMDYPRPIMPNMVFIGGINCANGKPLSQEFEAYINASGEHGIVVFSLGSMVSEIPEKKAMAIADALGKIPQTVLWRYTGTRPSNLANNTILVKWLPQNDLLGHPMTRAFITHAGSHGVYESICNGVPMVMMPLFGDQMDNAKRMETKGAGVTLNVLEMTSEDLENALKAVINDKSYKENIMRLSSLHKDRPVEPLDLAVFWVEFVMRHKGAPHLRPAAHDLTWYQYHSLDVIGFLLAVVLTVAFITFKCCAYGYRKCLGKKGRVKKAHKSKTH
Test: UGT1A4-catalyzed trifluoperazine N-glucuronidation inhibition in pooled human liver microsomes
Type: in vitro ADME
Settings: 5 μM trifluoperazine, pooled HLM (H161)
Method: The inhibitory potency (IC50 value) of honokiol on UGT1A1-catalyzed 17β-estradiol 3-glucuronidation, UGT1A4-catalyzed trifluoperazine glucuronidation, UGT1A9-catalyzed propofol glucuronidation, and UGT2B7-catalyzed azidothymidine glucuronidation activities was determined in pooled human liver microsomes by LC-MS/MS [48]. […] Reactions were initiated by the addition of UDPGA (final concentration, 5 mM), and incubations were carried out at 37 °C in a shaking water bath for 30 min. Reactions were terminated by adding 100 μL of ice-cold methanol containing an internal standard (500 ng/mL ezetimibe for 17β-estradiol 3-glucuronide and propofol glucuronide; 30 ng/mL meloxicam for trifluoperazine glucuronide and azidothymidine glucuronide). The incubation mixtures were then centrifuged at 13,000 × g for 4 min, followed by dilution of 30 μL of the supernatant with 70 μL of water. An aliquot (5 μL) was injected onto the LC-MS/MS. All incubations were performed in triplicate and the mean values were used. Glucuronides produced from UGT isoform-specific substrates were determined by LC-MS/MS [49].
The apparent kinetic parameters for inhibitory potential (Ki values) were estimated from the fitted curves using Enzyme Kinetics Ver. 1.1 software (Systat Software Inc.).

Question: How did the IC50 turn out when C=CCc1ccc(O)c(-c2ccc(O)c(CC=C)c2)c1 [honokiol, 2-(4-hydroxy-3-prop-2-enyl-phenyl)-4-prop-2-enyl-phenol] was run?
Answer: The IC50 was 158 µM.
